# Results published in patent US20130130306A1, “ZN (II) BASED COLORIMETRIC SENSOR AND PROCESS FOR THE PREPARATION THEREOF” (COUNCIL OF SCIENTIFIC & INDUSTRIAL RESEARCH, priority 2010, published 2013).
# Values joined by “and” are separate entries in the source; they are usually repeats but may differ in a detail not shown here. Identical values can stand only once.
# Legend:
# [1] = UV-vis spectral response and spectrophotometric titration with ATP; assay type: binding; conditions: for binding constant for the formation of the complex L.Zn-ATP: spectrophotometric titration, pH 7.2, 10 mM HEPES, 25° C.
# Protocol: (§1) In order to examine the binding behaviour of the Zn-complex (L.Zn) (Scheme 1, Formula 1A) to various important anions (like ATP, CTP, ADP, AMP, PPi, H2PO4^−, SO4^2−, CH3CO2^−, I^−, Br^−, Cl^− and F^−) the following experiment was conducted. A solution (˜21 mM) for of sodium salts of ATP, CTP, ADP, AMP, PPi, H2PO4^−, SO4^−, CH3CO2^−, I^−, Br^−, Cl^−, and F^− were prepared using respective salt in 10 mM HEPES buffer solutions (pH 7.2) and was stored for use. Further, a solution (44.35 μM) of the compound L.Zn (Scheme 1, Formula 1A) was prepared using doubly-distilled and deionized water and stored. These stored solutions were used on the day of preparation of the solution for experiment.
# A test solution was used after 1 mL of a probe storage solution (the previously prepared and stored solution of 44.35 μM for the compound (L.Zn) (Scheme 1, Formula 1A of the present invention) was put in a 10 mL test tube, such that the final concentration of the probe storage solution was 8.87 μM. To this 4 mL of each of the previous prepared and stored solutions of ATP and other anions (CTP, ADP, AMP, PPi, H2PO4^−, SO4^2−, CH3CO2^−, I^−, Br^−, Cl^− and F^−) was added to the test tube such that the aliquot of each of the solutions was (17 mM). Then the resultant solution was used for UV-vis spectral measurement after appropriate base line correction using a double beam spectrophotometer (Shimadzu UV-3101 PC) and the results thereof are shown in FIG. 1.
# Thus a red shift of 40 nm was observed on addition of the solution of ATP (˜1920 equiv.) to the solution of L.Zn (Scheme 1, Formula 1A). […]
# (§2) A solution of L.Zn (Scheme 1, Formula 1A) (8.87 μM) in aqueous medium was treated with excess amount of ˜500 μM of different phosphate anions like H2PO4^−, PPi, AMP, ADP, ATP and CTP. […] Thus L.Zn (Scheme 1, Formula 1A) can bind ATP selectively among various phosphate anions and the color change associated with the binding of ATP can be detected through naked eye (FIG. 2). […]
# A 1.0 mL of stored solution of L.Zn (Scheme 1, Formula 1A) ([L.Zn]=47.3 μM) was put in a test-tube, such that, the final concentration of the L.Zn solution was 9.46 μM. To this varying amount of ATP (0.1-4 mL of the stored ATP solution (21.6 mM) was added. Resulting solution was then diluted by addition of a 10 mM HEPES buffer solution (pH 7.2) maintaining total volume of the resultant aliquot of 5 mL, which was used for spectrophotometric measurements using a double beam spectrophotometer and quartz spectrophotometric cell (3.5 mL capacity). The total spectral change was measured using a double beam spectrophotometer (Shimadzu UV-3101 PC) after appropriate base line correction. Slit width for all experiments during this titration was kept unchanged at 0.2 nm and the results thereof are shown in FIG. 3. […]
# [2] = UV-vis spectral response and spectrophotometric titration with ADP; assay type: binding
# Protocol: as §1, with “experiment. […]” for “experiment.”
# as §2
# [3] = L.Zn 8.87 μM in aqueous medium, ~500 μM anion
smiles,measurement,setting,value
CN(C)c1ccc(N=Nc2ccc(S(=O)(=O)N3CCCNCCNCCCNCC3)cc2)cc1.O=[N+]([O-])[O-].O=[N+]([O-])[O-].[Zn+2] [L.Zn],color change on addition of ATP (naked eye),[1]; [3],significant color change
same,shift of absorption maxima on binding to ATP,"[1]; from 463 nm to 503 nm, pH 7.2, ~1920 equiv. ATP",40 nm
same,binding constant for the formation of the complex L.Zn-ATP,[1],978 ± 15 M⁻¹ and 978 ± 4 M⁻¹
same,binding constant for the formation of the complex L.Zn-ATP,[1]; listed as compound of formula 1A,978 ± 4 M⁻¹
same,color change on addition of ADP (naked eye),[2]; [3],Slight color change
same,binding constant for the formation of the complex L.Zn-ADP,"[2]; spectrophotometric titration, pH 7.2, 10 mM HEPES, 25° C.",142 (±15) M^−1
